#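 In this assay, cells in 96-well plates receive the compound at five concentrations for 48 hours. Endpoints are linearly interpolated between the surrounding concentrations. The concentration for 50% growth inhibition is given as GI50. TGI denotes the concentration required for complete inhibition of growth.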
# How the values were obtained:
# Test in all cases: NCI-60 cell line screen, 48 h
# TK-10 renal = system: TK-10 renal
# SF-268 CNS = system: SF-268 CNS
# SN12C renal = system: SN12C renal
# A549 NSCLC = system: A549 NSCLC
# DU-145 prostate = system: DU-145 prostate
# NCI-H23 lung = system: NCI-H23 lung
# HCT-116 colon = system: HCT-116 colon
# RPMI-8226 leukemia = system: RPMI-8226 leukemia
# CAKI-1 renal = system: CAKI-1 renal
# SK-MEL-2 melanoma = system: SK-MEL-2 melanoma
# SR leukemia = system: SR leukemia
# MALME-3M melanoma = system: MALME-3M melanoma
# T-47D breast = system: T-47D breast
# HT29 colon = system: HT29 colon
# A498 renal = system: A498 renal
# OVCAR-3 ovarian = system: OVCAR-3 ovarian
# OVCAR-5 ovarian = system: OVCAR-5 ovarian
# ACHN renal = system: ACHN renal
# MOLT-4 leukemia = system: MOLT-4 leukemia
# SF-539 CNS = system: SF-539 CNS
# IGROV1 ovarian = system: IGROV1 ovarian
# MCF7 breast = system: MCF7 breast
# BT-549 breast = system: BT-549 breast
# PC-3 prostate = system: PC-3 prostate
# MDA-MB-435 = system: MDA-MB-435
# OVCAR-8 ovarian = system: OVCAR-8 ovarian
# SK-OV-3 ovarian = system: SK-OV-3 ovarian
# RXF 393 renal = system: RXF 393 renal
# UACC-257 melanoma = system: UACC-257 melanoma
# KM12 colon = system: KM12 colon
# NCI-H226 lung = system: NCI-H226 lung
# 786-0 renal = system: 786-0 renal
# COLO 205 colon = system: COLO 205 colon
# HOP-92 NSCLC = system: HOP-92 NSCLC
# SNB-19 CNS = system: SNB-19 CNS
# UACC-62 melanoma = system: UACC-62 melanoma
# HOP-62 NSCLC = system: HOP-62 NSCLC
# MDA-MB-231 breast = system: MDA-MB-231 breast
# OVCAR-4 ovarian = system: OVCAR-4 ovarian
# EKVX NSCLC = system: EKVX NSCLC
# NCI-H460 lung = system: NCI-H460 lung
# HCC-2998 colon = system: HCC-2998 colon
# K-562 leukemia = system: K-562 leukemia
# M14 melanoma = system: M14 melanoma
# HCT-15 colon = system: HCT-15 colon
# LOX IMVI melanoma = system: LOX IMVI melanoma
# SF-295 CNS = system: SF-295 CNS
# HL-60(TB) leukemia = system: HL-60(TB) leukemia
# HS 578T breast = system: HS 578T breast
# NCI-H522 lung = system: NCI-H522 lung
# SW-620 colon = system: SW-620 colon
# SNB-75 CNS = system: SNB-75 CNS
# UO-31 renal = system: UO-31 renal
# CCRF-CEM leukemia = system: CCRF-CEM leukemia
# U251 CNS = system: U251 CNS
# SK-MEL-5 melanoma = system: SK-MEL-5 melanoma
# SK-MEL-28 melanoma = system: SK-MEL-28 melanoma
# NCI/ADR-RES ovarian = system: NCI/ADR-RES ovarian
smiles,measurement,setting,value
Cc1nc2sc(C(=O)Nc3ccccc3)c(N)c2cc1C(=O)/C=C/c1ccccc1,GI50,TK-10 renal,2300 nM
same,TGI,TK-10 renal,6.39 µM
same,GI50,SF-268 CNS,2940 nM
same,TGI,SF-268 CNS,9.93 µM
same,GI50,SN12C renal,2020 nM
same,TGI,SN12C renal,4.45 µM
same,GI50,A549 NSCLC,2080 nM
same,TGI,A549 NSCLC,4.91 µM
same,GI50,DU-145 prostate,1810 nM
same,TGI,DU-145 prostate,3.6 µM
same,GI50,NCI-H23 lung,2200 nM
same,TGI,NCI-H23 lung,5.44 µM
same,GI50,HCT-116 colon,1460 nM
same,TGI,HCT-116 colon,2970 nM
same,GI50,RPMI-8226 leukemia,1670 nM
same,TGI,RPMI-8226 leukemia,5.2 µM
same,GI50,CAKI-1 renal,1870 nM
same,TGI,CAKI-1 renal,3.74 µM
same,GI50,SK-MEL-2 melanoma,3.37 µM
same,TGI,SK-MEL-2 melanoma,14.6 µM
same,GI50,SR leukemia,1380 nM
same,TGI,SR leukemia,11.7 µM
same,GI50,MALME-3M melanoma,2350 nM
same,TGI,MALME-3M melanoma,7.71 µM
same,GI50,T-47D breast,2480 nM
same,TGI,T-47D breast,8.2 µM
same,GI50,HT29 colon,1770 nM
same,TGI,HT29 colon,3.95 µM
same,GI50,A498 renal,2210 nM
same,TGI,A498 renal,6.08 µM
same,GI50,OVCAR-3 ovarian,1900 nM
same,TGI,OVCAR-3 ovarian,4.14 µM
same,GI50,OVCAR-5 ovarian,2310 nM
same,TGI,OVCAR-5 ovarian,7.13 µM
same,GI50,ACHN renal,1810 nM
same,TGI,ACHN renal,3.45 µM
same,GI50,MOLT-4 leukemia,2910 nM
same,TGI,MOLT-4 leukemia,76.1 µM
same,GI50,SF-539 CNS,1880 nM
same,TGI,SF-539 CNS,3.56 µM
same,GI50,IGROV1 ovarian,1990 nM
same,TGI,IGROV1 ovarian,4.73 µM
same,GI50,MCF7 breast,1530 nM
same,TGI,MCF7 breast,5.51 µM
same,GI50,BT-549 breast,1710 nM
same,TGI,BT-549 breast,3.63 µM
same,GI50,PC-3 prostate,2140 nM
same,TGI,PC-3 prostate,5.55 µM
same,GI50,MDA-MB-435,1540 nM
same,TGI,MDA-MB-435,3.73 µM
same,GI50,OVCAR-8 ovarian,3.03 µM
same,TGI,OVCAR-8 ovarian,11.8 µM
same,GI50,SK-OV-3 ovarian,4.03 µM
same,TGI,SK-OV-3 ovarian,23.3 µM
same,GI50,RXF 393 renal,1670 nM
same,TGI,RXF 393 renal,3.25 µM
same,GI50,UACC-257 melanoma,2110 nM
same,TGI,UACC-257 melanoma,5.29 µM
same,GI50,KM12 colon,1730 nM
same,TGI,KM12 colon,3.38 µM
same,GI50,NCI-H226 lung,2040 nM
same,TGI,NCI-H226 lung,4.6 µM
same,GI50,786-0 renal,1510 nM
same,TGI,786-0 renal,3.01 µM
same,GI50,COLO 205 colon,2020 nM
same,TGI,COLO 205 colon,4.49 µM
same,GI50,HOP-92 NSCLC,2070 nM
same,TGI,HOP-92 NSCLC,7.07 µM
same,GI50,SNB-19 CNS,1890 nM
same,TGI,SNB-19 CNS,4.17 µM
same,GI50,UACC-62 melanoma,1640 nM
same,TGI,UACC-62 melanoma,3.45 µM
same,GI50,HOP-62 NSCLC,2150 nM
same,TGI,HOP-62 NSCLC,5.13 µM
same,GI50,MDA-MB-231 breast,3.41 µM
same,TGI,MDA-MB-231 breast,11.3 µM
same,GI50,OVCAR-4 ovarian,3.1 µM
same,TGI,OVCAR-4 ovarian,18.5 µM
same,GI50,EKVX NSCLC,2260 nM
same,TGI,EKVX NSCLC,6.48 µM
same,GI50,NCI-H460 lung,1960 nM
same,TGI,NCI-H460 lung,4.15 µM
same,GI50,HCC-2998 colon,1770 nM
same,TGI,HCC-2998 colon,3.28 µM
same,GI50,K-562 leukemia,2410 nM
same,TGI,K-562 leukemia,17 µM
same,GI50,M14 melanoma,1760 nM
same,TGI,M14 melanoma,4.49 µM
same,GI50,HCT-15 colon,1570 nM
same,TGI,HCT-15 colon,3.63 µM
same,GI50,LOX IMVI melanoma,1680 nM
same,TGI,LOX IMVI melanoma,3.13 µM
same,GI50,SF-295 CNS,2770 nM
same,TGI,SF-295 CNS,7.56 µM
same,GI50,HL-60(TB) leukemia,2030 nM
same,TGI,HL-60(TB) leukemia,4.83 µM
same,GI50,HS 578T breast,2790 nM
same,TGI,HS 578T breast,> 100 µM
same,GI50,NCI-H522 lung,1770 nM
same,TGI,NCI-H522 lung,4.24 µM
same,GI50,SW-620 colon,1740 nM
same,TGI,SW-620 colon,4.49 µM
same,GI50,SNB-75 CNS,2180 nM
same,TGI,SNB-75 CNS,6.12 µM
same,GI50,UO-31 renal,1540 nM
same,TGI,UO-31 renal,2.89 µM
same,GI50,CCRF-CEM leukemia,2220 nM
same,TGI,CCRF-CEM leukemia,> 100 µM
same,GI50,U251 CNS,1710 nM
same,TGI,U251 CNS,3.16 µM
same,GI50,SK-MEL-5 melanoma,2270 nM
same,TGI,SK-MEL-5 melanoma,5.98 µM
COc1cc(Cn2c3c(c4c(C(=O)NCCN(C)C)c(O)ccc42)C(=O)c2ccccc2C3=O)cc(OC)c1,TGI,TK-10 renal,3.14 µM
same,TGI,DU-145 prostate,3.2 µM
same,TGI,CAKI-1 renal,3.26 µM
same,TGI,SK-MEL-2 melanoma,3.36 µM
same,TGI,MALME-3M melanoma,3.05 µM
same,TGI,HT29 colon,3.45 µM
same,TGI,A498 renal,3.45 µM
same,TGI,OVCAR-5 ovarian,3.2 µM
same,TGI,SF-539 CNS,3.4 µM
same,TGI,IGROV1 ovarian,3.22 µM
same,TGI,MDA-MB-435,3.4 µM
same,TGI,SK-OV-3 ovarian,3.88 µM
same,TGI,SK-MEL-28 melanoma,3.43 µM
same,TGI,RXF 393 renal,5.02 µM
same,TGI,UACC-257 melanoma,3.97 µM
same,TGI,KM12 colon,3.2 µM
same,TGI,NCI-H226 lung,48.3 µM
same,TGI,COLO 205 colon,3.34 µM
same,TGI,EKVX NSCLC,3.32 µM
same,TGI,HCC-2998 colon,2.35 µM
same,TGI,K-562 leukemia,> 100 µM
same,TGI,NCI/ADR-RES ovarian,5.21 µM
same,TGI,SF-295 CNS,3.45 µM
same,TGI,HS 578T breast,4.55 µM
same,TGI,NCI-H522 lung,3.21 µM
same,TGI,UO-31 renal,3.23 µM
same,TGI,SK-MEL-5 melanoma,3.27 µM
Cc1cccc(C(O)c2ccncc2)c1O (stereo not given),TGI,SF-268 CNS,> 100 µM
same,TGI,SN12C renal,> 100 µM
same,TGI,A549 NSCLC,> 100 µM
same,TGI,DU-145 prostate,> 100 µM
same,TGI,NCI-H23 lung,> 100 µM
same,TGI,HCT-116 colon,> 100000 nM
same,TGI,T-47D breast,> 100 µM
same,TGI,OVCAR-3 ovarian,> 100 µM
same,TGI,ACHN renal,> 100 µM
same,TGI,MOLT-4 leukemia,> 100 µM
same,TGI,SF-539 CNS,> 100 µM
same,TGI,PC-3 prostate,> 100 µM
same,TGI,OVCAR-8 ovarian,> 100 µM
same,TGI,RXF 393 renal,> 100 µM
same,TGI,UACC-257 melanoma,> 100 µM
same,TGI,KM12 colon,> 100 µM
same,TGI,NCI-H226 lung,> 100 µM
same,TGI,SNB-19 CNS,> 100 µM
same,TGI,UACC-62 melanoma,> 100 µM
same,TGI,HOP-62 NSCLC,> 100 µM
same,TGI,EKVX NSCLC,> 100 µM
same,TGI,HCC-2998 colon,> 100 µM
same,TGI,K-562 leukemia,> 100 µM
same,TGI,M14 melanoma,> 100 µM
same,TGI,HCT-15 colon,> 100 µM
same,TGI,LOX IMVI melanoma,> 100 µM
same,TGI,NCI/ADR-RES ovarian,> 100 µM
same,TGI,SF-295 CNS,> 100 µM
same,TGI,HL-60(TB) leukemia,> 100 µM
same,TGI,HS 578T breast,> 100 µM
same,TGI,NCI-H522 lung,> 100 µM
same,TGI,SNB-75 CNS,> 100 µM
same,TGI,UO-31 renal,> 100 µM
same,TGI,CCRF-CEM leukemia,> 100 µM
same,TGI,U251 CNS,> 100 µM
same,TGI,SK-MEL-5 melanoma,> 100 µM

# From PubChem BioAssay (NCI)
